This is an account of results in patent US20030095982A1, “Fraction of Cordyceps sinensis and method of isolation thereof” (priority 2001, published 2003).

SMILES strings stand for the structures.

The test system of data set [1] is ovalbumin (OA) induced bronchial hyperresponsiveness. Description: Histological examination of lung tissue in asthma model. Type of data set: in vivo, brown Norway rats (BNR). The conditions noted are these: prophylactic and therapeutic treatment. How it is done:
After BAL, each animal's chest was opened and the lungs were removed. The trachea and right lower lobe was fixed in 10% formaldehyde, dehydrated by different concentrations of alcohol, then embedded in paraffin, and cut into 4 μm thicknesses, stained with haematoxylin and eosin, and examined by light microscope. Histologic specimens (n=6 per each time point) were prepared. The trachea and each lobe were fixed in 10% formaldehyde, dehydrated by different concentrations of alcohol, then embedded in paraffin, and cut into 4 μm thicknesses; stained with haematosylin and eosin, and examined by light microscope for evaluation of the severity of inflammation. Each trachea and lung section was blindly assigned an inflammation score by two pathologists as follows; 1=rare or occasional inflammation cells scattered through the lung or trachea; 3=abundant inflammatory cells scattered through the lung or trachea; 2=inflammatory cells between the levels of 1 and 3. The total inflammation score for each animal was calculated as mean of the scores for 5 lung sections and trachea.

The subject of data set [2] is platelet aggregation induced by PAF. Description: PAF induced rabbit platelet aggregation in vitro. Type of data set: cell-based. The conditions noted are these: 0.625 mM; washed rabbit platelets; PAF 2 nM; preincubated 2 min. The source says:
In terms of inhibition, PAF induced rabbit platelete aggregation is used as an index of PAF function inhibition. It was used as the first step in vitro screening method for identifying potential substances which are capable of inhibiting PAF function and may improve bronchial hyperresponsiveness in vivo.
Washed platelets were obtained from rabbits. In brief, rabbit blood was collected from the marginal ear vein into tubes containing one-sixth volume of acid-citrate-dextrose as anticoagulant. The blood was centrifuged at 200×g for 15 min at room temperature. The platelet-rich plasma was mixed with 1/40 volume of EDTA (final concentration 5 mM) and re-centrifuged at 1000×g for 12 min. The supernatant was discarded and the platelet pellet was suspended in modified Ca^2+-free Tyrode's buffer (137 mM NaCl, 2.8 mM KCl, 2 mM MgCl2, 0.33 mM NaH2PO4, 5 mM glucose, 10 mM HEPES) with 0.35% bovine serum albumin, heparin (50 unit/ml) and apyrase (1 unit/ml). Following incubation at 37° C. for 20 min, the washed platelet pellet was resuspended in Tyrode's buffer containing 1 mM Ca^2+. The platelet number were counted by using a hemocytometer and adjusted to 3.5×10^8 platelets/ml. […] Aggregation was measured by a turbidimetric method. […] The inhibitory activities of F-4 and F-8 on platelet aggregation induced by PAF were calculated according the equation: [formula]

Data set [3] deals with IFNγ (Th-1 related), IL-4, IL-5, IL-10 (Th-2 related) and iNOS mRNA. Description: Cytokine and iNOS mRNA in lung tissue by RT-PCR. Format: in vivo, brown Norway rats (BNR). The note with it: prophylactic and therapeutic treatment, OA asthma model. How it is done:
The in vivo role of F-4 and F8 of Th1/Th2 cytokines by […] mRNA in lung tissue and nuclear factor (NF)κ B activity using an electromobility shift assay (EMSA)
Total RNA was extracted from lung tissue samples by a method described previously and RT-PCR was performed using a RT-PCR kit (Clontech, USA). The following T-cell related cytokines were evaluated by measuring their mRNA expression: IFNγ (Th-1 related) and IL-4, IL-5 and IL-10 (all Th-2 related) and inducible nitric oxide synthase (iNOS).
Briefly, 2 μg of RNA in a 25 μl volume was first primed with 2 μl oligo-(dT)18 primer, 20 μM, at 70° C. for 2 min and then kept on ice for 5 min. after the reaction, a mixture containing the following: 8 μl of 5×reaction buffer; 2 μl, dNTP mix […] (each); 1 μl recombinant Rnase inhibitor, 40 units/μ1; and 2 μl MMLV reverse transcriptase, 200 units/μ1, was added to synthesize cDNA. cDNA was amplified by 40 PCR cycles; each consisting of a denaturation step (94° C. for 1 min), an annealing step (65˜55° C. for 1 min, 0.5° C./cycle touch down, 55° C. for 19 cycles), and an extension step (72° C. for 1 min). During the last cycle the 72° C. step was extended to 5 min. The PCR product was analyzed on 2% agarose gel electrophoresis. The identity of each cytokine cDNA was determined by the size of the PCR product obtained by electrophoresis, and confirmed by DNA sequencing of the PCR products. […]

In another data set the test system is ICR mice. Description: Acute toxicity test in ICR mice. Format: in vivo. The note with it: normal diet with 2% ratio, killed after 7 days. The source says: The methodology used to carry out acute toxicity testing for this invention was as follows: ICR mice that had been fed on a normal diet with the above active compound included to constitute a 2% ratio were killed after 7 days in order to ascertain whether there was any evidence of toxicity.
B: Compound F8: This refers to F8 (for spectroscopic and structural data, see FIG. 2a, 2b, and 3). The molecular formula of compound F8 is C28H46O3. To confirm the potential applicability of the above fractions and to check for obvious toxicity or mutagenicity, Ames test and acute toxicity test were conducted on white mice (ICR-mice) using the F4 fraction or compound F8.

As to `CC(C)[C@@H](C)C=C[C@@H](C)[C@H]1CC[C@H]2C3=C[C@@H](O)[C@@]4(O)C[C@@H](O)CC[C@]4(C)[C@H]3CC[C@]12C` [F8, (24R)-ergosta-7,22-diene-3β, 5α, 6β,-triol], the pulmonary histological change entry in data set [1] is “improve pulmonary histological change”. The “Inhibitory Activity (%)” value in data set [2] is 97±2.6%. Further, in data set [3], the Th1 cytokines expression result was “enhance Th1 cytokines expression”; the “Th2 cytokines and iNOS gene mRNA expression” value was “decrease Th2 cytokines and INOS gene mRNA expression”. In addition, the acute toxicity entry in the data set on ICR mice is “no obvious evidence of toxicity or mutagenic properties”.
